According to PubChem BioAssay AID1963967 (Molecular Pharmacology Branch, DTP, NCI, 2024):

Test system: 855422-203-R-J1-PDC spheroids with HUVEC/MSC, viability
Experiment: Anticancer human tumor 855422-203-R-J1-PDC patient-derived bladder carcinoma cell line growth inhibition [PI3K]
Settings: for viability, T/C: stronger effect = lower value
Outline: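 Complex 3D spheroids (cancer cells + endothelial HUVEC + mesenchymal stem cells); drug pairs of targeted agent x inavolisib/alpelisib/duvelisib/copanlisib; half-log series from ~Cmax, max 10 microM if Cmax unknown; endpoint viability.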

[1] = curve of first compound, second compound 0.0316 µM
[2] = curve of first compound, second compound 0.1 µM
[3] = curve of first compound, second compound 0.316 µM
[4] = curve of first compound, second compound 1 µM
[5] = second compound 0.0316 µM, first compound 0.0316 µM
[6] = second compound 0.0316 µM, first compound 0.1 µM
[7] = second compound 0.1 µM, first compound 0.0316 µM
[8] = second compound 0.1 µM, first compound 0.1 µM
[9] = second compound 0.316 µM, first compound 0.0316 µM
[10] = second compound 0.316 µM, first compound 0.1 µM
[11] = second compound 1 µM, first compound 0.0316 µM
[12] = second compound 1 µM, first compound 0.1 µM
[13] = curve of first compound, second compound 0.00316 µM
[14] = curve of first compound, second compound 0.01 µM
[15] = second compound 0.00316 µM, first compound 0.0316 µM
[16] = second compound 0.00316 µM, first compound 0.1 µM
[17] = second compound 0.00316 µM, first compound 0.316 µM
[18] = second compound 0.00316 µM, first compound 1 µM
[19] = second compound 0.00316 µM, first compound 3.16 µM
[20] = second compound 0.00316 µM, first compound 10 µM
[21] = second compound 0.01 µM, first compound 0.0316 µM
[22] = second compound 0.01 µM, first compound 0.1 µM
[23] = second compound 0.01 µM, first compound 0.316 µM
[24] = second compound 0.01 µM, first compound 1 µM
[25] = second compound 0.01 µM, first compound 3.16 µM
[26] = second compound 0.01 µM, first compound 10 µM
[27] = second compound 0.0316 µM, first compound 0.316 µM
[28] = second compound 0.0316 µM, first compound 1 µM
[29] = second compound 0.0316 µM, first compound 3.16 µM
[30] = second compound 0.0316 µM, first compound 10 µM
[31] = second compound 0.1 µM, first compound 0.316 µM
[32] = second compound 0.1 µM, first compound 1 µM
[33] = second compound 0.1 µM, first compound 3.16 µM
[34] = second compound 0.1 µM, first compound 10 µM
[35] = second compound 0.316 µM, first compound 0.316 µM
[36] = second compound 0.316 µM, first compound 1 µM
[37] = second compound 0.316 µM, first compound 3.16 µM
[38] = second compound 0.316 µM, first compound 10 µM
[39] = second compound 1 µM, first compound 0.316 µM
[40] = second compound 1 µM, first compound 1 µM
[41] = second compound 1 µM, first compound 3.16 µM
[42] = second compound 1 µM, first compound 10 µM
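Also: agents incubated with spheroids for one week before read-out.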
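For viability, T/C in this document: 100% = DMSO vehicle-treated control wells.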

For `C=CC(=O)N1CCN(c2nc(=O)n(-c3c(C)ccnc3C(C)C)c3nc(-c4c(O)cccc4F)c(F)cc23)C(C)C1` (stereo not drawn), the viability, T/C (compound 0.0316 µM) was 109% [middle of 4 runs], the viability, T/C (compound 0.1 µM) was 95.2% [middle of 4 runs] and the viability, T/C (compound 0.316 µM) was 117% [middle of 4 runs]. The viability, T/C (compound 1 µM) was 108% [middle of 4 runs], the viability, T/C (compound 3.16 µM) was 122% [middle of 4 runs] and the viability, T/C (compound 10 µM) was 121% [middle of 4 runs]. It also gave an IC50 (curve of compound) greater than 10 µM.

Work on `CC(=O)c1c(C)c2cnc(Nc3ccc(N4CCNCC4)cn3)nc2n(C2CCCC2)c1=O` + Cc1nc(NC(=O)N2CCCC2C(N)=O)sc1-c1ccnc(C(C)(C)C(F)(F)F)c1 yielded an IC50 [1] greater than 0.1 µM, an IC50 [2] greater than 0.1 µM and an IC50 [3] greater than 0.1 µM. The IC50 [4] was 0.0517 µM, the IC50 (curve of first compound, second compound 3.16 µM) was less than 0.000316 µM and the IC50 (curve of first compound, second compound 10 µM) was less than 0.000316 µM. The viability, T/C (second compound 0.0316 µM, first compound 0.000316 µM) was 103%, the viability, T/C (second compound 0.0316 µM, first compound 0.001 µM) was 94.1% and the viability, T/C (second compound 0.0316 µM, first compound 0.00316 µM) was 111%. The viability, T/C (second compound 0.0316 µM, first compound 0.01 µM) was 112%, the viability, T/C [5] was 102% and the viability, T/C [6] was 85.3%. For the same compound, the viability, T/C (second compound 0.1 µM, first compound 0.000316 µM) was 106%, the viability, T/C (second compound 0.1 µM, first compound 0.001 µM) was 97.8% and the viability, T/C (second compound 0.1 µM, first compound 0.00316 µM) was 109%. The viability, T/C (second compound 0.1 µM, first compound 0.01 µM) was 98.3%, the viability, T/C [7] was 96.3% and the viability, T/C [8] was 76.7%. It also gave a viability, T/C (second compound 0.316 µM, first compound 0.000316 µM) of 91.7%, a viability, T/C (second compound 0.316 µM, first compound 0.001 µM) of 92.5% and a viability, T/C (second compound 0.316 µM, first compound 0.00316 µM) of 97.3%. The viability, T/C (second compound 0.316 µM, first compound 0.01 µM) was 90.7%, the viability, T/C [9] was 90.9% and the viability, T/C [10] was 58%. For the same compound, the viability, T/C (second compound 1 µM, first compound 0.000316 µM) was 69.4%, the viability, T/C (second compound 1 µM, first compound 0.001 µM) was 78.2% and the viability, T/C (second compound 1 µM, first compound 0.00316 µM) was 72.8%. The viability, T/C (second compound 1 µM, first compound 0.01 µM) was 75.5%, the viability, T/C [11] was 60.5% and the viability, T/C [12] was 33%. The viability, T/C (second compound 3.16 µM, first compound 0.000316 µM) was 44.1%, the viability, T/C (second compound 3.16 µM, first compound 0.001 µM) was 46.9% and the viability, T/C (second compound 3.16 µM, first compound 0.00316 µM) was 42.7%. It also gave a viability, T/C (second compound 3.16 µM, first compound 0.01 µM) of 41.3%, a viability, T/C (second compound 3.16 µM, first compound 0.0316 µM) of 34.5% and a viability, T/C (second compound 3.16 µM, first compound 0.1 µM) of 18.2%. It also gave a viability, T/C (second compound 10 µM, first compound 0.000316 µM) of 25.3%, a viability, T/C (second compound 10 µM, first compound 0.001 µM) of 24% and a viability, T/C (second compound 10 µM, first compound 0.00316 µM) of 24.1%. The viability, T/C (second compound 10 µM, first compound 0.01 µM) was 23%, the viability, T/C (second compound 10 µM, first compound 0.0316 µM) was 19.3% and the viability, T/C (second compound 10 µM, first compound 0.1 µM) was 10.7%.

In the case of `CC(C)NCC(C(=O)N1CCN(c2ncnc3c2C(C)CC3O)CC1)c1ccc(Cl)cc1` (stereo not drawn) + CC(Nc1ccc2c(c1)OCCn1cc(N3C(=O)OCC3C(F)F)nc1-2)C(N)=O, the IC50 [13] is reported as 0.836 µM, the IC50 [14] is reported as 1.12 µM and the IC50 [1] is reported as 1.16 µM. The IC50 [2] was 0.671 µM, the IC50 [3] was less than 0.0316 µM and the IC50 [4] was less than 0.0316 µM. The viability, T/C [15] was 107%, the viability, T/C [16] was 65.8% and the viability, T/C [17] was 70.4%. For the same compound, the viability, T/C [18] was 45.3%, the viability, T/C [19] was 38.7% and the viability, T/C [20] was 20.4%. It also gave a viability, T/C [21] of 82.2%, a viability, T/C [22] of 65.8% and a viability, T/C [23] of 71.3%. It also gave a viability, T/C [24] of 51.5%, a viability, T/C [25] of 32.2% and a viability, T/C [26] of 18.4%. For the same compound, the viability, T/C [5] was 66.6%, the viability, T/C [6] was 70% and the viability, T/C [27] was 67.7%. For the same compound, the viability, T/C [28] was 49.1%, the viability, T/C [29] was 34.8% and the viability, T/C [30] was 16.4%. It also gave a viability, T/C [7] of 65.8%, a viability, T/C [8] of 63.6% and a viability, T/C [31] of 61.9%. It also gave a viability, T/C [32] of 42.8%, a viability, T/C [33] of 27.2% and a viability, T/C [34] of 12.4%. It also gave a viability, T/C [9] of 47.6%, a viability, T/C [10] of 49.6% and a viability, T/C [35] of 45.8%. The viability, T/C [36] was 38.3%, the viability, T/C [37] was 24% and the viability, T/C [38] was 11.9%. For the same compound, the viability, T/C [11] was 39.2%, the viability, T/C [12] was 36.5% and the viability, T/C [39] was 31.4%. It also gave a viability, T/C [40] of 28.3%, a viability, T/C [41] of 20.9% and a viability, T/C [42] of 10.5%.

For `CNC(=O)c1ccc(N2C(=S)N(c3ccc(C#N)c(C(F)(F)F)c3)C(=O)C2(C)C)cc1F` + COc1c(OCCCN2CCOCC2)ccc2c3n(c(=NC(=O)c4cnc(N)nc4)nc12)CCN3, the IC50 [13] was greater than 10 µM, the IC50 [14] was greater than 10 µM and the IC50 [1] was greater than 10 µM. For the same compound, the IC50 [2] was less than 0.0316 µM, the IC50 [3] was less than 0.0316 µM and the IC50 [4] was less than 0.0316 µM. It also gave a viability, T/C [15] of 94.3%, a viability, T/C [16] of 79.5% and a viability, T/C [17] of 90.7%. It also gave a viability, T/C [18] of 83.1%, a viability, T/C [19] of 71.5% and a viability, T/C [20] of 66.5%. The viability, T/C [21] was 74%, the viability, T/C [22] was 85.1% and the viability, T/C [23] was 74.5%. For the same compound, the viability, T/C [24] was 76.1%, the viability, T/C [25] was 81.4% and the viability, T/C [26] was 68.5%. The viability, T/C [5] was 63.4%, the viability, T/C [6] was 69.3% and the viability, T/C [27] was 70.8%. The viability, T/C [28] was 61.2%, the viability, T/C [29] was 62.4% and the viability, T/C [30] was 58.2%. For the same compound, the viability, T/C [7] was 30.2%, the viability, T/C [8] was 32.3% and the viability, T/C [31] was 30.2%. It also gave a viability, T/C [32] of 32.9%, a viability, T/C [33] of 34.5% and a viability, T/C [34] of 29.4%. The viability, T/C [9] was 11.5%, the viability, T/C [10] was 10.8% and the viability, T/C [35] was 8.16%. The viability, T/C [36] was 12.7%, the viability, T/C [37] was 9.19% and the viability, T/C [38] was 10.1%. It also gave a viability, T/C [11] of 4.1%, a viability, T/C [12] of 4.74% and a viability, T/C [39] of 4.6%. For the same compound, the viability, T/C [40] was 4.66%, the viability, T/C [41] was 5.91% and the viability, T/C [42] was 4.28%.
